Laboratory results from patent US8841312B2, “Fused pyridine, pyrimidine and triazine compounds as cell cycle inhibitors” (Amgen Inc., priority 2007, dated 2014).

target: Cdk4/CyclinD1 (Homo sapiens (Human), UniProt P11802); assay: Cdk4 kinase inhibition assay with recombinant Cdk4/CyclinD1, Rb substrate, [33P]-ATP filter plate; format: biochemical; conditions: 25 μM ATP, read-out: Cdk 4 IC50
In short: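 Recombinant Cdk4/CyclinD1 or Cdk6/CyclinD3 phosphorylated Rb protein with [33P]-ATP for 1 h at room temperature. Protein was TCA-precipitated on filter plates and bound radioactivity counted. IC50 by nonlinear regression.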

Cdk4/CyclinD1, sequence (P11802 whole entry): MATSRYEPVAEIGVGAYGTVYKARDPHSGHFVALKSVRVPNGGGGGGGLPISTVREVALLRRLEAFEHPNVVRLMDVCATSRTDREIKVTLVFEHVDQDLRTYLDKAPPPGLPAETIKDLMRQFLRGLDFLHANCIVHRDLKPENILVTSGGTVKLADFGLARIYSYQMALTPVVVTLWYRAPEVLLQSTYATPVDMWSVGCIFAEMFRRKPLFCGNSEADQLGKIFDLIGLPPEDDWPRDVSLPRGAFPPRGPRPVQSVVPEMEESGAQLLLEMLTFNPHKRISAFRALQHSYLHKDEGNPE
Cdk4/CyclinD1, sequence (P24385 whole entry partner): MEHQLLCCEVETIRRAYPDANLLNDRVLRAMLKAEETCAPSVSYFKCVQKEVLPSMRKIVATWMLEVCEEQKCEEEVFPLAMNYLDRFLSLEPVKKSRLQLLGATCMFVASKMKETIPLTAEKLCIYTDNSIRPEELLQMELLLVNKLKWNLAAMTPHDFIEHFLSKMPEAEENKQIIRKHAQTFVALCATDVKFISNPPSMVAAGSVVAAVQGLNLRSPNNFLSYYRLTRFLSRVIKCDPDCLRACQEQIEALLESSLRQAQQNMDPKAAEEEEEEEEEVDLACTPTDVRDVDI

IC50	Compound
216 nM	C[C@H](CO)n1c2cnccc2c2cnc(Nc3ccc(N4CCC(N(C)C)CC4)nn3)nc21 [Example 385]
53 nM	CNC1CCN(c2ccc(Nc3ncc4c5ccncc5n([C@H](C)CO)c4n3)nn2)CC1 [Example 386]
227 nM	C[C@H](CO)n1c2cnccc2c2cnc(Nc3ccc(N4CCN[C@@H](C)C4)nn3)nc21 [Example 387]
218 nM	C[C@H](CO)n1c2cnccc2c2cnc(Nc3ccc(N4CCNC(C)(C)C4)nn3)nc21 [Example 388]
166 nM	C[C@H](CO)n1c2cnccc2c2cnc(Nc3ccc(N4CC[C@@H](O)C4)nn3)nc21 [Example 389]
184 nM	CN(C)C1CCN(c2ccc(Nc3ncc4c5ccncc5n([C@@H]5CCOC5)c4n3)nn2)CC1 [Example 391]
219 nM	O[C@@H]1CCN(c2ccc(Nc3ncc4c5ccncc5n([C@@H]5CCOC5)c4n3)nn2)C1 [Example 392]
300 nM	CNC1CCN(c2ccc(Nc3ncc4c5ccncc5n([C@H]5CCC[C@H]5O)c4n3)nc2)CC1 [Example 393]
1190 nM	CN(C)C1CCN(c2ccc(Nc3ncc4c5ccncc5n([C@H]5CCOC5)c4n3)nc2)CC1 [Example 394]
300 nM	CN(C)C1CCN(c2ccc(Nc3ncc4c5ccncc5n([C@H]5CCOC5)c4n3)nn2)CC1 [Example 395]
238 nM	O[C@@H]1CCN(c2ccc(Nc3ncc4c5ccncc5n([C@H]5CCOC5)c4n3)nc2)C1 [Example 396]
340 nM	O[C@@H]1CCN(c2ccc(Nc3ncc4c5ccncc5n([C@H]5CCOC5)c4n3)nn2)C1 [Example 397]
330 nM	O[C@H]1CCC[C@@H]1n1c2cnccc2c2cnc(Nc3ccc(N4CCNCC4)cn3)nc21 [Example 398]
57 nM	CN(C)C1CCN(c2ccc(Nc3ncc4c5ccncc5n([C@H]5CCC[C@@H]5O)c4n3)nc2)CC1 [Example 399]
301 nM	CNC1CCN(c2ccc(Nc3ncc4c5ccncc5n([C@H]5CCC[C@@H]5O)c4n3)nc2)CC1 [Example 400]
170 nM	C[C@H]1CN(c2ccc(Nc3ncc4c5ccncc5n([C@H]5CCC[C@@H]5O)c4n3)nc2)CCN1 [Example 401]
175 nM	CC1(C)CN(c2ccc(Nc3ncc4c5ccncc5n([C@H]5CCC[C@@H]5O)c4n3)nc2)CCN1 [Example 402]
350 nM	O[C@@H]1CCN(c2ccc(Nc3ncc4c5ccncc5n([C@H]5CCC[C@@H]5O)c4n3)nc2)C1 [Example 403]
820 nM	O[C@H]1CCC[C@@H]1n1c2cnccc2c2cnc(Nc3ccc(N4CCNCC4)nn3)nc21 [Example 404]
750 nM	CN(C)C1CCN(c2ccc(Nc3ncc4c5ccncc5n([C@H]5CCC[C@@H]5O)c4n3)nn2)CC1 [Example 405]
360 nM	CNC1CCN(c2ccc(Nc3ncc4c5ccncc5n([C@H]5CCC[C@@H]5O)c4n3)nn2)CC1 [Example 406]
35 nM	C[C@H]1CN(c2ccc(Nc3ncc4c5ccncc5n([C@H]5CCC[C@@H]5O)c4n3)nn2)CCN1 [Example 407]
44 nM	O[C@@H]1CCN(c2ccc(Nc3ncc4c5ccncc5n([C@H]5CCC[C@@H]5O)c4n3)nn2)C1 [Example 408]

IC50	Compound
281 nM	C[C@H](O)Cn1c2cnccc2c2cnc(Nc3ccc(N4CCNCC4)nn3)nc21 [Example 409]
240 nM	C[C@H](O)Cn1c2cnccc2c2cnc(Nc3ccc(N4CCC(N(C)C)CC4)nn3)nc21 [Example 410]
430 nM	CNC1CCN(c2ccc(Nc3ncc4c5ccncc5n(C[C@H](C)O)c4n3)nn2)CC1 [Example 411]
14 nM	C[C@H](O)Cn1c2cnccc2c2cnc(Nc3ccc(N4CCN[C@@H](C)C4)nn3)nc21 [Example 412]
33 nM	C[C@H](O)Cn1c2cnccc2c2cnc(Nc3ccc(N4CCNC(C)(C)C4)nn3)nc21 [Example 413]
2.6 nM	C[C@H](O)Cn1c2cnccc2c2cnc(Nc3ccc(N4CC[C@@H](O)C4)nn3)nc21 [Example 414]
259 nM	C[C@@H](O)Cn1c2cnccc2c2cnc(Nc3ccc(N4CCNCC4)nn3)nc21 [Example 415]
271 nM	C[C@@H](O)Cn1c2cnccc2c2cnc(Nc3ccc(N4CCC(N(C)C)CC4)nn3)nc21 [Example 416]
151 nM	CNC1CCN(c2ccc(Nc3ncc4c5ccncc5n(C[C@@H](C)O)c4n3)nn2)CC1 [Example 417]
112 nM	C[C@@H](O)Cn1c2cnccc2c2cnc(Nc3ccc(N4CCNC(C)(C)C4)nn3)nc21 [Example 418]
162 nM	C[C@@H](O)Cn1c2cnccc2c2cnc(Nc3ccc(N4CC[C@@H](O)C4)nn3)nc21 [Example 419]
77 nM	C[C@H](O)Cn1c2cnccc2c2cnc(Nc3ccc(N4CCNCC4)cn3)nc21 [Example 421]
69 nM	C[C@H](O)Cn1c2cnccc2c2cnc(Nc3ccc(N4CCC(N(C)C)CC4)cn3)nc21 [Example 422]
75 nM	C[C@H](O)Cn1c2cnccc2c2cnc(Nc3ccc(N4CCN[C@@H](C)C4)cn3)nc21 [Example 423]
72 nM	C[C@H](O)Cn1c2cnccc2c2cnc(Nc3ccc(N4CC[C@@H](O)C4)cn3)nc21 [Example 424]
73 nM	CNC1CCN(c2ccc(Nc3ncc4c5ccncc5n(C[C@@H](C)O)c4n3)nc2)CC1 [Example 425]
115 nM	C[C@@H](O)Cn1c2cnccc2c2cnc(Nc3ccc(N4CCNC(C)(C)C4)cn3)nc21 [Example 426]
24 nM	c1cc2c3cnc(Nc4ccc(N5CCNCC5)nn4)nc3n([C@@H]3CCOC3)c2cn1 [Example 427]
59 nM	CNC1CCN(c2ccc(Nc3ncc4c5ccncc5n([C@@H]5CCOC5)c4n3)nn2)CC1 [Example 428]
92 nM	C[C@H]1CN(c2ccc(Nc3ncc4c5ccncc5n([C@@H]5CCOC5)c4n3)nn2)CCN1 [Example 429]
21 nM	CC1(C)CN(c2ccc(Nc3ncc4c5ccncc5n([C@@H]5CCOC5)c4n3)nn2)CCN1 [Example 430]
12 nM	CNC1CCN(c2ccc(Nc3ncc4c5ccncc5n([C@@H]5CCOC5)c4n3)nc2)CC1 [Example 431]
17 nM	CC1(C)CN(c2ccc(Nc3ncc4c5ccncc5n([C@@H]5CCOC5)c4n3)nc2)CCN1 [Example 432]

target: Cdk6/CyclinD3 (Homo sapiens (Human), UniProt Q00534); assay: Cdk6 kinase inhibition assay with recombinant Cdk6/CyclinD3, Rb substrate, [33P]-ATP filter plate; format: biochemical; conditions: 25 μM ATP, read-out: Cdk 6 IC50
Description: The Cdk4 and Cdk6 inhibitory activity of the compounds is measured with a kinase inhibition assay using recombinant Cdk4/CyclinD1 or Cdk6/CyclinD3 protein complexes. The protein substrate used in the assay is the retinoblastoma protein (Rb). The kinase reactions are carried out in a 96-well filter plate (MSDV N6B50, Millipore). […] The mixture is incubated at room temperature for 1 hour and the proteins precipitated with an equal volume of 20% TCA. The plates are washed with 10% TCA according to the manufacturer's instruction and dried at room temperature. The amount of the phosphorylated Rb is determined with a TopCount (PerkinElmer). The IC50 of a compound is determined by nonlinear regression curve fitting using software program Prism 5 (GraphPad Software).

Cdk6/CyclinD3, sequence (Q00534 whole entry): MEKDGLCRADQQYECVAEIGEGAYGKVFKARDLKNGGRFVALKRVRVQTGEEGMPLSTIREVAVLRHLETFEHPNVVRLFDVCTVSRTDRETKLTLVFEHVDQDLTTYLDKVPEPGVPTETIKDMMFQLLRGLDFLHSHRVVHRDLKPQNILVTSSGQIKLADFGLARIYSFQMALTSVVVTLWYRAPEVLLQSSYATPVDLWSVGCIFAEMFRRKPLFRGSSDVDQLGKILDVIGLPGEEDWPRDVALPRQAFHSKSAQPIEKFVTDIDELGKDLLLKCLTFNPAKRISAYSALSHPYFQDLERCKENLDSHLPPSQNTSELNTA
Cdk6/CyclinD3, sequence (P30281 whole entry partner): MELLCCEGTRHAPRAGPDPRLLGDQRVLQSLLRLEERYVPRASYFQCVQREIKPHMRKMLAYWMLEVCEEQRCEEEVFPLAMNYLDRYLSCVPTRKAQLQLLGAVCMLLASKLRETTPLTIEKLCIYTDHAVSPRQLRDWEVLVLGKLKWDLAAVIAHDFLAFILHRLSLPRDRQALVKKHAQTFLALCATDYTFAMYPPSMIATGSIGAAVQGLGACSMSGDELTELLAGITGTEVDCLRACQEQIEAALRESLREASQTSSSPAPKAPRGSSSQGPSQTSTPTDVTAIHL

IC50	Compound
2.6 nM	c1cc2c3cnc(Nc4ccc(N5CCNCC5)cc4)nc3n(C3CC4CCC3C4)c2cn1 (stereo not drawn) [Example 40, (9-Bicyclo[2.2.1]hept-2-yl-9H-pyrido[4′,3′:4,5]pyrrolo[2,3-d]pyrimidin-2-yl)-(4-piperazin-1-yl-phenyl)-amine]
2 nM	O[C@@H]1CCN(c2ccc(Nc3ncc4c5ccnc(F)c5n(C5CCCC5)c4n3)nc2)C1 [Example 186A, (3R)-1-(6-((9-cyclopentyl-8-fluoro-9H-pyrido[4′,3′:4,5]pyrrolo[2,3-d]pyrimidin-2-yl)amino)-3-pyridinyl)-3-pyrrolidinol]
4.8 nM	O[C@H]1CCN(c2ccc(Nc3ncc4c5ccnc(F)c5n(C5CCCC5)c4n3)nc2)C1 [Example 186B, (3S)-1-(6-((9-cyclopentyl-8-fluoro-9H-pyrido[4′,3′:4,5]pyrrolo[2,3-d]pyrimidin-2-yl)amino)-3-pyridinyl)-3-pyrrolidinol]

Compound	IC50
C[C@H](O)CNC1CCN(c2ccc(Nc3ncc4c5ccncc5n(C5CCCC5)c4n3)nc2)CC1 [Example 459]	14 nM
C[C@@H](O)CNC1CCN(c2ccc(Nc3ncc4c5ccncc5n(C5CCCC5)c4n3)nc2)CC1 [Example 460]	12 nM
